Assay results published in US20080070237A1, “Npas3 Mutant Mice and Uses for Screening and Testing Therapies for Schizophrenia and Related Neurological Disorders” (priority 2003, published 2008).
Counter-ions that a name gives are not always drawn. Like-named read-outs stand apart in the source and are kept apart here.

Legend:
Npas3−/− mice = type: in vivo, mouse
Protocol: (§1) Locomotor Activity Tests. For all locomotor experiments, activity is measured in a 41×41×30 cm Omnitech Digiscan activity monitor equipped with 16 pairs of photodetector-LED beams along the x and y axis. (Accuscan Electronics, Columbus, Ohio). […] After the acclimation period, Baseline Locomoter Activity Test results are recorded for each test mouse. Subsequently, locomotor activity is tested following pharmacological challenges of three neurotransmitter pathways involved in schizophrenia and other neurological disorders. The pathways and the drugs used to challenge each include:
(§2) a. Methamphetamine (a dopamine pathway agonist) 1.0 mg/kg in the form of D-methamphetamine-HCL (Sigma; St. Louis, Mo.). Methamphetamine is a strong dopamine agonist that will activate D1 and D2 receptor signaling.
(§3) b. Haloperidol (a dopamine pathway antagonist) 0.3 mg/kg or 1.0 mg/kg (Tocris; Ellisville, Mo.).
(§4) The test drug is 0.3 mg/kg clozapine (Sigma; St. Louis, Mo.). An atypical neuroleptic agent, clozapine, which has a high affinity for serotonin 5-HT2 and 5-HT6 receptors, is administered to determine the involvement of serotonergic pathways. Although clozapine can also antagonize both D1 and D2-like receptors, ten times higher concentrations are necessary to inhibit dopamine-dependent hyperactivity
(§5) The test drugs are 1.0 mg/kg MK-801 or 0.3 mg/kg MK-801 (ICN Biomedicals Inc.; Aurora, Ohio). MK-801 is a noncompetitive NMDA receptor antagonist.
(§6) Each drug is administered in a subcutaneous injection volume of 5 mL/kg body weight. Post-challenge activity is measured for three hours. Horizontal activity counts (scored by visual observance or breaking a light beam) and total distance are recorded during the pre- and post-challenge periods at 3-minute intervals with VersaMax software. All Locomoter Activity Tests are performed on mice at 7-9 weeks of age, with n=12. All values are expressed as mean±SEM. Statistical analyses are performed using appropriate analysis of variance (ANOVA) followed by adapted post hoc comparisons.

Npas3+/+ control mice = type: in vivo, mouse
Protocol: as §1, §2, §3, §4, §5, §6

[1] = FIG. 28 dose of MK-801 (not stated at the place; b105: 1.0 or 0.3 mg/kg), subcutaneous
[2] = FIG. 28 dose of MK-801, subcutaneous
[3] = lower dose 0.1 mg/kg, data not shown
[4] = 0.3 mg/kg subcutaneous, post-challenge activity measured for three hours
[5] = 1.0 mg/kg subcutaneous, post-challenge activity measured for three hours

With `C[C@]12N[C@H](Cc3ccccc31)c1ccccc12` [MK-801] the “horizontal locomotor activity after drug challenge” value (shortened to “horizontal locomotor activity”) (Npas3−/− mice; [1]) was “dramatic suppression of locomotor activity”, the “stereotype (stereotypy) after drug challenge” value (Npas3−/− mice; [2]) was “induced hyperstereotype” and the “locomotor activity after drug challenge” value (Npas3−/− mice; [3]) was “potently activated locomotion”. The “horizontal locomotor activity” value (Npas3+/+ control mice; [1]) was “increased locomotor activity”, the “stereotype (stereotypy) after drug challenge” value (Npas3+/+ control mice; [2]) was “did not increase the levels of stereotype” and the “locomotor activity after drug challenge” value (Npas3+/+ control mice; [3]) was “did not induce hyperactivity”.
`O=C(CCCN1CCC(O)(c2ccc(Cl)cc2)CC1)c1ccc(F)cc1` [haloperidol, Haloperidol] was tested, and the “horizontal locomotor activity” value (Npas3−/− mice; [4]) was “partial reduction in activity” and the “horizontal locomotor activity” value (Npas3+/+ control mice; [4]) was “substantial impairment in locomotor activity”.
With `CN[C@@H](C)Cc1ccccc1` [methamphetamine, D-methamphetamine-HCL] the “horizontal locomotor activity” value (Npas3−/− mice; [5]) was “failure of methamphetamine to increase locomotor activity” and the “horizontal locomotor activity” value (Npas3+/+ control mice; [5]) was “increases locomotor behavior”.
